According to ChEMBL document CHEMBL5108004, “An auristatin-based peptide-drug conjugate targeting Kita-Kyushu lung cancer antigen 1 for precision chemoradiotherapy in gastric cancer” (Eur J Med Chem, 2022):
Active and inactive are the calls of the source. The rule behind the calls is not given here. *1 amine or outer side, *2 acyl side, *3 side chain or, on linkers, in order; H or OH if unused. Where a SMILES comes first, the peptide text is derived from it. Bridges are numbered along the chain shown (N, C = ends). Roman numbers before positions name the chains, in order. [ ]: non-standard residue; d: D form. The star is where a group is joined. Hexanoyl(6-succinimido-3yl) = O=C1CC([*:1])C(=O)N1CCCCCC(=O)[*:2]; Dolaproine = CO[C@@H]([C@@H]1CCCN1)[C@@H](C)C(=O)O; Dil = CC[C@H](C)[C@H](NC)[C@@H](CC(=O)O)OC; PABC = O=C(OCc1ccc(N[*:1])cc1)[*:2]; X1 = C[C@@H](N*)[C@@H](O)c1ccccc1; Cit = NC(=O)NCCC[C@H](N)C(=O)O; NMeV = CN[C@H](C(=O)O)C(C)C

What was measured:
[1] = Ratio IC50 for cytotoxicity against KK-LC-1-negative human HGC-27 cells to IC50 for cytotoxicity against KK-LC-1-positive human NUGC-4 cells
[2] = Toxicity in male BALB/c nude mouse xenografted with KK-LC-1-positive human NUGC-4 cells assessed as median survival time at 0.3 mg/kg, iv administered once a week for 3 weeks; format: organism-based; settings: in vivo, 504 h
MKN-45 [3] = assay: Cell cycle arrest in KK-LC-1-positive human MKN-45 cells assessed as increase accumulation at G2/M phase at 100 nM measured after 0 to 48 hrs by propidium iodide staining based flow cytometric analysis; format: functional; settings: time 0-48 hrs, TDE = time-dependent effect
MKN-45 [4] = assay: Inhibition of colony formation in KK-LC-1-positive human MKN-45 cells assessed as decrease in colonies incubated for 24 hrs followed by exposure to 2 Gy gamma irradiation by crystal violet staining based clonogenic assay; format: functional, cell-based
[5] = Toxicity in male BALB/c nude mouse xenografted with KK-LC-1-positive human MKN-45 cells assessed as effect on kidney function at 0.3 mg/kg, iv administered twice a week for 3 weeks; format: organism-based; settings: in vivo, 504 h
MKN-45 [6] = assay: Antitumor activity against KK-LC-1-positive human MKN-45 cells xenografted in male BALB/c nude mouse assessed as induction of tumor regression at 0.3 mg/kg, iv administered twice a week for 3 weeks; format: functional, organism-based
[7] = Toxicity in male BALB/c nude mouse xenografted with KK-LC-1-positive human MKN-45 cells assessed as effect on liver function at 1 mg/kg, iv administered twice a week for 3 weeks; format: organism-based; settings: in vivo, 504 h
[8] = Stability in human plasma assessed as compound remaining at 500 uM measured after 8 hrs by HPLC analysis; format: ADME, cell-free; settings: read-out: Stability
NUGC-4 [9] = assay: Antitumor activity against KK-LC-1-positive human NUGC-4 cells xenografted in male BALB/c nude mouse assessed as reduction in tumor burden at 0.3 mg/kg, iv administered once a week for 3 weeks followed by exposure to 2 Gy gamma irradiation for 2 consecutive days once a week for 3 weeks; format: functional, organism-based
MKN-45 [10] = assay: Induction of apoptosis in KK-LC-1-positive human MKN-45 cells at 100 nM incubated for 24 hrs followed by exposure to 2 Gy gamma irradiation by AnnexinV/PI-staining based flow cytometry; format: functional, cell-based
[11] = target: T1, Kita-kyushu lung cancer antigen 1 (Homo sapiens) (UniProt Q5H943); assay: Binding affinity to recombinant KK-LC-1 (unknown origin) using FITC-labeled compound at 0.1 to 1000 uM incubated for 2 hrs and measured by FLISA assay; settings: dose 0.1-1000 µM
T1 sequence (whole entry): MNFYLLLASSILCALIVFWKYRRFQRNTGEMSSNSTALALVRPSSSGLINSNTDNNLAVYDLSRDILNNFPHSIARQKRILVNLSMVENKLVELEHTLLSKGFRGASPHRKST

NUGC-4 [12] = assay: Inhibition of colony formation in KK-LC-1-positive human NUGC-4 cells assessed as decrease in colonies incubated for 24 hrs followed by exposure to 2 Gy gamma irradiation by crystal violet staining based clonogenic assay; format: functional, cell-based
[13] = Toxicity in male BALB/c nude mouse xenografted with KK-LC-1-positive human MKN-45 cells assessed as mouse death at 3 mg/kg, iv administered twice a week for 3 weeks; format: organism-based; settings: in vivo, 504 h
MKN-45 [14] = assay: Cytotoxicity against KK-LC-1-positive human MKN-45 cells incubated for 72 hrs by CCK-8 assay; format: functional, cell-based; settings: MKN-45, 72 h
MKN-45 [15] = assay: Antitumor activity against KK-LC-1-positive human MKN-45 cells xenografted in male BALB/c nude mouse assessed as tumor volume at 0.3 mg/kg, iv administered twice a week for 3 weeks; format: functional
[16] = Stability in PBS at 37 degreeC measured after 48 hrs by HPLC analysis; format: physicochemical; settings: buffer
MKN-45 [17] = assay: Induction of DNA damage in KK-LC-1-positive human MKN-45 cells assessed as double strand breaks by measuring increase in gamma-H2AX foci formation at 100 nM incubated for 24 hrs followed by exposure to 2 Gy gamma irradiation by immunofluorescence staining method; format: functional, cell-based
[18] = Toxicity in male BALB/c nude mouse xenografted with KK-LC-1-positive human MKN-45 cells assessed as effect on kidney function at 2 mg/kg, iv administered twice a week for 3 weeks; format: organism-based; settings: in vivo, 504 h
[19] = Toxicity in male BALB/c nude mouse xenografted with KK-LC-1-positive human MKN-45 cells assessed as body weight loss at 2 mg/kg, iv administered twice a week for 3 weeks; format: organism-based; settings: in vivo, 504 h
[20] = Toxicity in male BALB/c nude mouse xenografted with KK-LC-1-positive human NUGC-4 cells assessed as mouse survival at 0.3 mg/kg, iv administered once a week for 3 weeks followed by exposure to 2 Gy gamma irradiation for 2 consecutive days once a week for 3 weeks measured after 47 days; format: organism-based; settings: in vivo
[21] = Toxicity in male BALB/c nude mouse xenografted with KK-LC-1-positive human MKN-45 cells assessed as effect on liver function at 0.3 mg/kg, iv administered twice a week for 3 weeks; format: organism-based; settings: in vivo, 504 h
NUGC-4 [22] = assay: Antitumor activity against KK-LC-1-positive human NUGC-4 cells xenografted in male BALB/c nude mouse assessed as decrease in Ki67 at 0.3 mg/kg, iv administered once a week for 3 weeks followed by exposure to 2 Gy gamma irradiation for 2 consecutive days once a week for 3 weeks measured by immunohistochemical staining analysis; format: functional, organism-based
NUGC-4 [23] = assay: Cell cycle arrest in KK-LC-1-positive human NUGC-4 cells assessed as accumulation at G2/M phase at 100 nM measured after 24 hrs by propidium iodide staining based flow cytometric analysis (reference value: 21.5 +/- 0.7 %); format: functional
NUGC-4 [24] = assay: Cell cycle arrest in KK-LC-1-positive human NUGC-4 cells assessed as accumulation at G2/M phase at 20 nM measured after 24 hrs by propidium iodide staining based flow cytometric analysis (reference value: 21.5 +/- 0.7 %); format: functional
[25] = Toxicity in male BALB/c nude mouse xenografted with KK-LC-1-positive human MKN-45 cells assessed as body weight loss at 1 mg/kg, iv administered twice a week for 3 weeks; format: organism-based; settings: in vivo, 504 h

With `CC[C@H](C)[C@@H]([C@@H](CC(=O)N1CCC[C@H]1[C@H](OC)[C@@H](C)C(=O)N[C@H](C)[C@@H](O)c1ccccc1)OC)N(C)C(=O)[C@@H](NC(=O)[C@@H](NC(=O)[C@H](C(C)C)N(C)C(=O)OCc1ccc(NC(=O)[C@H](CCCNC(N)=O)NC(=O)[C@@H](NC(=O)CCCCCN2C(=O)CC(SC[C@H](N)C(=O)N[C@H]3CSSC[C@@H](C(=O)O)NC(=O)[C@H]([C@@H](C)O)NC(=O)[C@H]([C@@H](C)O)NC(=O)[C@H](CC(C)C)NC(=O)[C@H](C)NC(=O)[C@H]([C@@H](C)O)NC(=O)[C@H](CC(N)=O)NC(=O)[C@H](CCCCN)NC3=O)C2=O)C(C)C)cc1)C(C)C)C(C)C` (stereo not given in full) (I: H-CCKNTALTTC-OH / II: V[Cit][PABC][NMeV]VV[Dil][Dolaproine]-X1; linker I:1-II:N via Hexanoyl(6-succinimido-3yl); disulfide I:2-I:10) the “Ratio IC50” value [1] was 100, the MST [2] was 40 days and the Activity (MKN-45 [3]) was “Tde”. The inhibition (MKN-45 [4]) was “Active”, the Activity [5] was “Non-Toxic” and the Activity (MKN-45 [6]) was “Active”. The Activity [7] was “Non-Toxic”, the remaining at 8 h, 500 µM [8] was 42.5% and the Activity (NUGC-4 [9]) was “Active”. The Activity (MKN-45 [10]) was “Active”, the Activity [11] was “Active” and the inhibition (NUGC-4 [12]) was “Active”. For the same molecule, the Activity [13] was “Toxic”, the IC50 (MKN-45 [14]) was 5.26 nM and the Activity (MKN-45 [15]) was 292.1 mm3. The Stability [16] was “Stable”, the Activity (MKN-45 [17]) was “Active” and the Activity [18] was “Non-Toxic”. The Activity [19] was “Non-Toxic”, the survival at 504 h [20] was 83.3% and the Activity [21] was “Non-Toxic”. The Activity (NUGC-4 [22]) was “Active”, the Activity (NUGC-4 [23]) was 67.4% and the Activity (NUGC-4 [24]) was 30.9%. For the same molecule, the Activity [25] was “Non-Toxic”.
